Assay results from US20250186439A1, “PYK2 INHIBITION MODULATES IMMUNE CELL FUNCTION” (The Children's Medical Center Corporation, priority 2022, published 2025).
“Also recorded” adds a separate entry of the source.

Tests used:
Format in all cases: cell-based, mouse
MG6 cells [1] = assay: Phagocytosis of pHrodo Red E. coli BioParticles by MG6 cells (confocal, IMARIS spot analysis); details: 1000 nM, 24 h
Procedure: (§1) FIGS. 5A-5D. Characteristics of Pyk2 inhibition on phagocytotic activity in microglia. FIG. 5A: Immunofluorescent imaging depicting phagocytosis of pHrodo Red E. coli BioParticles by MG6 cells after exposure to Pyk2 inhibitors. MG6 cells were either untreated (left) or treated with 1000 nM Pyk2 inhibitor treatment for 24 hours (right). Immunofluorescent images were obtained via confocal microscopy (×600). MG6 cells were fixed and stained with phalloidin-AlexaFluor488 to visualize actin, and with DAPI to visualize nuclei (encircled). Scale bar is 20 μm. […] FIG. 5B: Immunofluorescent imaging depicting phagocytosis of pHrodo Red E. coli BioParticles by mononucleated and multinucleated MG6 cells after exposure to Pyk2 inhibitors. MG6 cells were treated and imaged as in FIG. 5A. After obtaining three-dimensional images, BioParticles are quantified by a spot analysis using IMARIS software (bottom figures). FIG. 5C: Quantification of spot analysis in FIG. 5B. The output of IMARIS spot analysis was analyzed using one-way ANOVA. […] FIG. 5D: Phagocytotic activity for Aβ in MG6 cells. Immunostaining for Iba1 and Aβ in control and Pyk2 inhibitor treated group. MG6 cells were treated with Pyk2 inhibitor or vehicle for 24 hours and then Hilite-555 labelled Aβ42 was added for 24 hours. Data are representative images of four wells from three independent experiments. A 20 μm scale bar is in the bottom-left corner.
To assess whether or not Pyk2 inhibitor treated, multinuclear MG6 cells were also more phagocytic, treated MG6 cells were subsequently exposed to pHrodo Red E. coli BioParticles (Thermo Fisher Scientific #P35360), a fluorogenic phagocytic substrate derived from Escherichia coli. […] To assess if there was any difference in the phagocytosis of mononucleated and multinucleated MG6 cells, treated cells were assessed via confocal microscopy to generate three-dimensional images of phagocytosed particles, which were then quantified using IMARIS cell imaging software (FIG. 5B).

MG6 cells [2] = assay: Phagocytosis of Hilite-555 labelled Aβ42 by MG6 cells; details: 24 h inhibitor, Hilite-555 labelled Aβ42 500 ng/mL; listed as Pyk2 inhibitor
Procedure: as §1, with “A 20 μm scale bar is in the bottom-left corner.” left out

Lamp1 = assay: Immunoblot of Lamp1 (lysosomal activity) in MG6 cells; details: 1000 nM, under β-amyloid stimulation
Procedure: FIGS. 6A and 6B. Responses of lysosomal function in microglia to β-amyloid stimulation. FIG. 6A: Immunoblots of MG6 cells after treatment with Pyk2 inhibitor and β-amyloid oligomers. Cells were pretreated with 100 ng/mL CSF-1 and 1000 nM Pyk2 inhibitor (PF431396) for 24 hours as indicated, then cell lysates were harvested after treatment with 500 ng/mL β-amyloid for 24 hours (lanes 4-6). MG6 cell lysates were subjected to immunoblotting of phosphorylated Pyk2 (p-Pyk2), Lamp1, Erk, and phosphorylated Erk (p-Erk). Tubulin was used as a loading control. FIG. 6B: Quantification of immunoblotting depicted in FIG. 6A. Ratios of p-Pyk2/Pyk2, Lamp1/Tubulin, and p-Erk/Erk were calculated for MG6 cells pretreated with CSF-1 and a Pyk2 inhibitor, as indicated.
To assess lysosomal activity, Pyk2 inhibitor treated MG6 cells were also exposed to a disease-relevant substrate, β-amyloid protein, which is associated with progressive loss of neuronal function during Alzheimer's disease. After 24 hours of treatment with β-amyloid, control and Pyk2 inhibitor treated MG6 cells were collected, lysed, and immunoblotted in order to determine the relative protein levels of Pyk2, phosphorylated Pyk2, Lamp1, Erk, phosphorylated Erk, and tubulin (FIGS. 6A and 6B). […] However, in the presence of β-amyloid protein, an increase in Lamp1 was observed following treatment with Pyk2 inhibitor.

[3] = system: IL-6, IL-1β, IL-10, and TGF-β mRNA; assay: Cytokine/chemokine mRNA levels (qPCR) in sorted MG6 cells; details: qPCR after inhibitor treatment
Procedure: FIGS. 7A-7D. Pyk2 inhibition promotes the phagocytotic activity and inflammatory responses in microglia. FIG. 7A: Quantification of the effect of Pyk2 inhibitor treatment on proliferation of mononucleated and multinucleated MG6 cells. MG6 cells were pretreated with 1000 nM Pyk2 inhibitor for 24 hours and mono-/multi-nuclear cells were isolated and collected by fluorescent activated cell sorting. […] There is no difference in proliferation of mononuclear cells after Pyk2 inhibitor treatment compared to untreated control cells. FIG. 7B: Fluorescent imaging depicting the effect of Pyk2 inhibitor on phagocytosis of mononucleated and multinucleated MG6 cells. MG6 cells were pretreated with 1000 nM Pyk2 inhibitor for 24 hours and mono-/multi-nuclear cells were isolated and collected by fluorescent activated cell sorting. After sorting, cells were treated with pHrodo Red E. coli BioParticles. Representative images are shown at ×20 magnification level. FIG. 7C: Quantification of phagocytosis of mononucleated and multinucleated MG6 cells over time. After Pyk2 inhibitor treatment and cell sorting, MG6 cells were treated with pHrodo Red E. coli BioParticles for the indicated time. Fluorescence intensity was measured by fluorescence microplate reader at excitation/emission wavelengths of 560/580 nm. […] FIG. 7D: Quantification of the effect of Pyk2 inhibitor treatment on cytokine/chemokine levels of mononucleated and multinucleated MG6 cells. The relative mRNA levels of IL-6, IL-1β, IL-10, and TGF-β were measured by a real-time PCR (qPCR). Measured mRNA transcript levels are reported as the mean level±standard deviation (n=3; *: p-value<0.05; **: p-value <0.01; ***: p-value <0.005; ****: p-value <0.001; and *****: p-value <0.0005).
Next, the differences in the activity of mononucleated and multinucleated microglial cells in response to Pyk2 inhibition was further assessed. […] Mononucleated and multinucleated MG6 cells also differed regarding the cytokines and chemokines produced by each (FIG. 7D).

## CN(c1ccccc1CNc1nc(Nc2ccc3c(c2)CC(=O)N3)ncc1C(F)(F)F)S(C)(=O)=O [PF-431396]
MG6 cells [1]
  phagocytic activity, treated mononuclear and multinuclear microglia combined vs controls: significantly higher
MG6 cells [1]; listed as Pyk2 inhibitor
  phagocytosis of pHrodo Red E. coli BioParticles, mononucleated treated cells vs control: no significant difference
  phagocytosis of pHrodo Red E. coli BioParticles, multinucleated treated cells vs control/mononucleated: statistically significant increase; also recorded: significantly higher
MG6 cells [2]
  phagocytosis of Aβ42: increased phagocytosis; also recorded: significantly higher
Lamp1
  Lamp1 (lysosomal activity): increased
Lamp1; listed as Pyk2 inhibitor
  Lamp1 (lysosomal activity): increase
[3]
  IL-1β expression, mononucleated MG6 cells: increased expression
  IL-1β expression, multinucleated MG6 cells: did not
  IL-6 expression, mononucleated MG6 cells: increased expression
  IL-6 expression, multinucleated MG6 cells: did not
  IL-10, mononucleated MG6 cells: reduction
  IL-10, multinucleated MG6 cells: reduction
  TGF-β expression, multinucleated MG6 cells: increase
